{"source": "patent US20100305174A1", "about": "“Novel Heterocyclic Derivatives” (ORCHID RESEARCH LABORATORIES LIMITED, priority 2005, published 2010)", "key": {"HT-29": {"test_system": "HT-29", "experiment": "Inhibition of colon cancer cell growth (MTS)", "assay_type": "cell-based", "conditions": "10 μM, six days, MTS viability", "method": "(§1) HT-29 is a colon cancer cell line and they were grown in 96 well plates with seeding concentration of 1000 cells/well. The cells were pretreated with compounds mentioned in FIG. 3 at 10 μM concentrations or taxol at 1 and 2.5 μM concentration or DMSO for six consecutive days. Every 48 hrs they were stained with MTS dye and viability was checked accordingly."}, "TNF-α": {"test_system": "TNF-α", "experiment": "TNF-α inhibition in LPS-challenged human PBMC", "assay_type": "cell-based", "conditions": "Homo sapiens, PBMC, LPS 100 ng/mL, 20 hours, read-out: % Inhibition TNF alpha", "method": "(§2) Human PBMC cells were cultured and incubated with compounds listed in table-4 at 1 and 10 μM concentrations. Cells (1×10^6/mL) were challenged with lipopolysaccharides (LPS) at a concentration of (100 ng/mL) for 20 hours. Cell supernatant was analyzed for the presence of TNF-α, IL-1β and IL-6 cytokines by antibody directed enzyme-linked immunoassay."}, "MCF-7": {"test_system": "MCF-7", "experiment": "Inhibition of breast cancer cell growth (MTS)", "assay_type": "cell-based", "conditions": "10 μM, six days, MTS viability", "method": "as §1, with “MCF-7” for “HT-29”, “breast” for “colon”, “at” for “with seeding concentration of”, “2” for “3”, “concentration” for “concentrations”"}, "IL-1β": {"test_system": "IL-1β", "experiment": "IL-1β inhibition in LPS-challenged human PBMC", "assay_type": "cell-based", "conditions": "Homo sapiens, PBMC; 10 μM, LPS 100 ng/mL, 20 hours; read-out: % Inhibition IL1beta", "method": "as §2"}, "DPP IV": {"target": "T1, DPP IV (Homo sapiens, UniProt P27487)", "T1 construct": "using human plasma as a source of DPP IV; from tissue; host or cells: human plasma", "T1 sequence (P27487 39-766 limits assumed)": "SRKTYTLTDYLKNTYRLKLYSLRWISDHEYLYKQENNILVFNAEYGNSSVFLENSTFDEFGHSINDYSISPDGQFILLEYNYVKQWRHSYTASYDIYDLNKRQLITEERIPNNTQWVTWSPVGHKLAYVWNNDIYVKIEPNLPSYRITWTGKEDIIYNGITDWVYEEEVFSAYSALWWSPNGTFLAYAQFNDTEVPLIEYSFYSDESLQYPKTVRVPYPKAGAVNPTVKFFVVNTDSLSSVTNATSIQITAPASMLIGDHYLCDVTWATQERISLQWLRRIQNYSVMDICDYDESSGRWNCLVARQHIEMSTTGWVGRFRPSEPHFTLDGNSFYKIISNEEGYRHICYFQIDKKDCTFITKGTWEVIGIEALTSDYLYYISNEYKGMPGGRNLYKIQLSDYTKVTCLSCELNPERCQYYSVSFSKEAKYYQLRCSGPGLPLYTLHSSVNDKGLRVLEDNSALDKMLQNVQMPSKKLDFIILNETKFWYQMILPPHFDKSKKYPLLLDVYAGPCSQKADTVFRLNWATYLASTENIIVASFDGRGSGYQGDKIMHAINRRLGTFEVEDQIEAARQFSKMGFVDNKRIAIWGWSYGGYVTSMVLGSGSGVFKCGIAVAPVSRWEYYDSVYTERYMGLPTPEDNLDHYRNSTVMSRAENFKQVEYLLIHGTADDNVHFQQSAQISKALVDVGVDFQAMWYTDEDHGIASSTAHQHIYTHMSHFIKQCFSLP", "experiment": "DPP IV assay (human plasma as source, H-gly-pro AMC substrate)", "assay_type": "biochemical", "conditions": "compared to vehicle control", "method": "DPP IV assay is carried by using human plasma as a source of DPP IV. The compounds were incubated at a concentration of 1 and 10 μM in assay buffer containing DPP IV enzyme. The compounds were incubated for 1 hr and then the substrate H-gly-pro AMC was added and further incubated for 20 min and then the reaction was stopped on addition of 25% glacial acetic acid. The plates were read in a spectrofluorimeter to get RFU on setting excitation wavelength of 360 nm and emission wavelength of 460 nm. Percentage inhibition is calculated as compared to vehicle control."}, "3T3-L1 fibroblasts": {"test_system": "3T3-L1 fibroblasts", "experiment": "Adipogenesis assay in 3T3-L1 (Oil-red-O staining)", "assay_type": "cell-based", "method": "All known PPARγ agonists induce differentiation in fibroblast cells. The adipogenic potential of these compounds is correlated with their affinity to this receptor. To check quickly the affinity of compounds to these receptors, 3T3-L1 fibroblasts were treated with either DMSO control or rosiglitazone as positive control or the compounds at 1 μM concentration for several days. On day 13th, the differentiated adipocytes were stained with Oil-red-O (Sigma) and washed thoroughly to remove unbound stain and visualized under Olympus microscope. […] This is an indirect proof that example 78 have no affinity to PPARγ receptor."}, "[1]": {"test_system": "streptozotocin induced diabetic mice", "experiment": "Antidiabetic activity in streptozotocin induced diabetic mice", "assay_type": "in vivo, Swiss albino mice", "conditions": "Mus musculus, 168 h, 50 mg/kg oral, 7 days, plasma, compared to control group", "method": "Swiss albino mice of either sex were used in the study at the age of 10 weeks. Diabetes was induced in animals by injecting streptozotocin by i.p. route at a dose of 200 mg/kg body weight. 48 hours after streptozotocin administration, the animals were kept for fasting for 6 hours and blood was collected and plasma separated and glucose was estimated. Animals showing greater than 200 mg/dl glucose levels were considered as diabetic and these animals were randomly distributed into various groups. The compounds listed in the table 3 were administered at a dose of 50 mg/kg body weight by oral route for 7 days. Later animals were fasted for 6 hours and blood was collected and plasma separated. Biochemical estimations like glucose, cholesterol and triglycerides were carried out using the plasma. The effect of compounds mentioned in the table was expressed in terms of percentage reduction in biochemical values as compared to control group."}, "3T3-L1 cells": {"test_system": "3T3-L1 cells", "experiment": "Glucose uptake assay using 3T3-L1 cells", "assay_type": "cell-based", "conditions": "statement in words, table-1 assay", "method": "3T3-L1 cells were differentiated by the addition of differentiation cocktail (72 μg/ml insulin, 0.5 mM IBMX, 400 ng/ml Dexamethasone) for 4 days and later fed with media without differentation cocktail for 7-8 days. After differentiation the cells were incubated with the either reference compound BLX-1002 or compounds listed in the table 1 at 1 μM concentrations for 72 hours and carried out the glucose uptake assay for 10 min by the addition of KRP buffer supplemented with 2.5 μCi/ml ^14C deoxy glucose. Stimulation Index is defined as the amount of ^14C Deoxyglucose uptake induced by 1 μM of BLX-1002 incubated for 72 hrs in an assay condition as per protocol described above with differentiated 3T3-L1 adipocytes. Values of compounds mentioned in table-1 are with reference to stimulation index of reference compound BLX-1002."}}, "note": "Where two headings read alike, the source gives them in different places."}
{"molecule": "CN1C(=O)OCC1Cc1ccc(Oc2ccc(/C=C3\\C(=O)Nc4ccccc43)cc2C(F)(F)F)cc1", "note": "(centres unmarked) [Example 14]", "values": [{"measurement": "inhibition of colon cancer cell growth", "setting": "HT-29", "result": "strong inhibitor"}, {"measurement": "inhibition at 1 µM", "setting": "TNF-α; 1 μM", "result": 15.9, "unit": "%"}, {"measurement": "inhibition at 10 µM", "setting": "TNF-α; 10 μM", "result": 25.4, "unit": "%"}, {"measurement": "inhibition of breast cancer cell growth", "setting": "MCF-7", "result": "strong inhibitor"}, {"measurement": "inhibition at 10 µM", "setting": "IL-1β", "result": 32.1, "unit": "%"}, {"measurement": "inhibition at 1 µM", "setting": "DPP IV; 1 μM", "result": 4.64, "unit": "%"}, {"measurement": "inhibition at 10 µM", "setting": "DPP IV; 10 μM", "result": 7.42, "unit": "%"}]}
{"molecule": "CCN1C(=O)OCC1Cc1ccc(Oc2ccc(CC3SC(=S)NC3=O)cc2)cc1", "note": "(centres unmarked) [Example 78, 3-ethyl-4-(4-{4-[(4-oxo-2-thioxo-1,3-thiazolidin-5-yl)methyl]phenoxy}benzyl)-1,3-oxazolidin-2-one]", "values": [{"measurement": "adipogenesis (Oil-red-O staining)", "setting": "3T3-L1 fibroblasts; 1 μM, stained on day 13", "result": "remained unchanged"}, {"measurement": "adipogenesis DRC, Oil-red-O staining", "setting": "3T3-L1 fibroblasts; at tested concentrations", "result": "did not show significant staining"}, {"measurement": "affinity to PPARγ receptor", "setting": "3T3-L1 fibroblasts; indirect proof from adipogenesis assay", "result": "no affinity"}, {"measurement": "inhibition in vivo at 50 mg/kg", "setting": "[1]; read-out: % Reduction Cholesterol", "result": 59, "unit": "%"}, {"measurement": "inhibition in vivo at 50 mg/kg", "setting": "[1]; read-out: % Reduction Glucose", "result": 45.4, "unit": "%"}, {"measurement": "inhibition in vivo at 50 mg/kg", "setting": "[1]; read-out: % Reduction Triglycerides", "result": 44.2, "unit": "%"}, {"measurement": "glucose uptake activity", "setting": "3T3-L1 cells", "result": "good glucose uptake activity"}]}
